Assay results reported in patent US7648972B2, “2-methylene-1α-hydroxy-19,21-dinorvitamin D3 analogs and uses thereof” (Wisconsin Alumni Research Foundation, priority 2006, dated 2010).
“Also recorded” adds a separate entry of the source.

What was measured:
[1] = molecular target: T1, full-length recombinant rat vitamin D receptor (Rattus norvegicus, UniProt P13053); experiment: Vitamin D receptor binding (competition with [3H]-1,25-(OH)2-D3)
T1 construct: Full-length recombinant rat receptor was expressed in E. coli BL21 (DE3) Codon Plus RIL cells; histidine tag (C); made in house; host or cells: E. coli BL21 (DE3) Codon Plus RIL
T1 sequence (P13053 1-423): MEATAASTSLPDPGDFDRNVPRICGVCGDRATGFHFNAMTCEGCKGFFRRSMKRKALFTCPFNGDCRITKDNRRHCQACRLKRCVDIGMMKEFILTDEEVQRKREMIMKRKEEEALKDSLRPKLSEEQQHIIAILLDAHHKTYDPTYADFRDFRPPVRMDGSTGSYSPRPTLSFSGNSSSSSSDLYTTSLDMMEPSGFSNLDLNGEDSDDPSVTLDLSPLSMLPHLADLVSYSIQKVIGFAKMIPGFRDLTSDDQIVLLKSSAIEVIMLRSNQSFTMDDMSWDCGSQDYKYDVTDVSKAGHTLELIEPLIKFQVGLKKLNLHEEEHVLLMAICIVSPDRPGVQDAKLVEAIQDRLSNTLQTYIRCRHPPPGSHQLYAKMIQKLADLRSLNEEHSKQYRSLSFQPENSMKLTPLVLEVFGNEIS
Experimental: Full-length recombinant rat receptor was expressed in E. coli BL21 (DE3) Codon Plus RIL cells and purified to homogeneity using two different column chromatography systems. The first system was a nickel affinity resin that utilizes the C-terminal histidine tag on this protein. The protein that was eluted from this resin was further purified using ion exchange chromatography (S-Sepharose Fast Flow). Aliquots of the purified protein were quick frozen in liquid nitrogen and stored at −80° C. until use. For use in binding assays, the protein was diluted in TEDK50 (50 mM Tris, 1.5 mM EDTA, pH7.4, 5 mM DTT, 150 mM KCl) with 0.1% Chaps detergent. The receptor protein and ligand concentration was optimized such that no more than 20% of the added radiolabeled ligand was bound to the receptor.
Radiolabeled ligand (^3H-1,25(OH)2D3, ˜159 Ci/mmole) was added in ethanol at a final concentration of 1 nM.
Radiolabeled and unlabeled ligands were added to 100 mcl of the diluted protein at a final ethanol concentration of <10%, mixed and incubated overnight on ice to reach binding equilibrium. The following day, 100 mcl of hydroxylapatite slurry (50%) was added to each tube and mixed at 10-minute intervals for 30 minutes. […] Total binding was determined from the tubes containing only radiolabeled ligand.

[2] = tested on: 24-hydyroxylase (24Ohase) gene promoter luciferase reporter in ROS 17/2.8 (bone) cells; experiment: In vitro transcription assay (24-hydroxylase promoter luciferase reporter); assay type: cell-based; settings: Ros17/2.8 (bone) cells
Experimental: Transcription activity was measured in ROS 17/2.8 (bone) cells that were stably transfected with a 24-hydyroxylase (24Ohase) gene promoter upstream of a luciferase reporter gene (Arbour et al., 1998). Cells were given a range of doses. Sixteen hours after dosing the cells were harvested and luciferase activities were measured using a luminometer. (RLU=relative luciferase units)

HL-60 cells = experiment: HL-60 differentiation (nitro blue tetrazolium reduction); assay type: cell-based, human; settings: FIG. 4
Experimental: The study drugs were dissolved in ethanol and the concentrations determined using UV spectrophotometry. Serial dilutions were prepared so that a range of drug concentrations could be tested without changing the final concentration of ethanol (<0.2%) present in the cell cultures.
Human promyelocytic leukemia (HL60) cells were grown in RPMI-1640 medium containing 10% fetal bovine serum. The cells were incubated at 37° C. in the presence of 5% CO2.
HL60 cells were plated at 1.2×10^5 cells/ml. Eighteen hours after plating, cells in duplicate were treated with drug. Four days later, the cells were harvested and a nitro blue tetrazolium reduction assay was performed (Collins et al., 1979; J. Exp. Med. 149:969-974). The percentage of differentiated cells was determined by counting a total of 200 cells and recording the number that contained intracellular black-blue formazan deposits. Verification of differentiation to monocytic cells was determined by measuring phagocytic activity (data not shown).

[3] = tested on: Male, weanling Sprague-Dawley rats; experiment: Intestinal calcium transport (everted gut sac method); assay type: in vivo, rat; settings: four consecutive ip doses, FIG. 3
Excerpt: (§1) Male, weanling Sprague-Dawley rats were placed on Diet 11 (Suda et al., Purified Rodent Diet-Diet 11, containing 0.47% and 0.3% phosphorus and fat soluble vitamins A, D, E and K are provided ad libitum)(0.47% Ca) diet+AEK for one week followed by Diet 11 (0.02% Ca)+AEK for 3 weeks. The rats were then switched to a diet containing 0.47% Ca for one week followed by two weeks on a diet containing 0.02% Ca. Dose administration began during the last week on 0.02% calcium diet. Four consecutive ip doses were given approximately 24 hours apart. Twenty-four hours after the last dose, blood was collected from the severed neck and the concentration of serum calcium determined as a measure of bone calcium mobilization. The first 10 cm of the intestine was also collected for intestinal calcium transport analysis using the everted gut sac method. The everted gut sac assay was carried out as previously described by Martin and Deluca, Am. J. Physiol. 216, 1351 (1969); (DeLuca et al., U.S. Pat. No. 4,188,345), which are incorporated by reference as if fully set forth herein.
The negative control material is prepared by volumetrically measuring ethanol (<5%) and propylene glycol, mixing, and then placing in storage at 2 to 8° C.
The solution is mixed and then stored at 2 to 8° C. […]

[4] = tested on: Male, weanling Sprague-Dawley rats; experiment: Bone calcium mobilization (serum calcium); assay type: in vivo, rat; settings: four consecutive ip doses, FIG. 2
Excerpt: as §1, with “herein. […]” for “herein.”
Twenty-four hours after the final dose, approximately 1 ml of blood is collected from the tail artery of each experimental animal. […] The level of calcium is determined by diluting the serum into 0.1% lanthum chloride and measuring the absorbance on an atomic absorption spectrophotometer (Perkin Elmer Model 3110, Shelton, Conn.).

binding to the recombinant vitamin D receptor, times less active when compared to 1α,25-dihydroxyvitamin D3 ([1]; competition with [3H]-1,25-(OH)2-D3, relative to 1α,25-dihydroxyvitamin D3, FIG. 1): 10 times | binding to vitamin D receptors (in words) ([1]; summary statement): high binding to vitamin D receptors
Compound: C=C1[C@H](O)CC(=C/C=C2\CCC[C@]3(C)[C@@H](CCCCC(C)C)CC[C@@H]23)C[C@H]1O [SY-44, 2-methylene-1α-hydroxy-19,21-dinorvitamin D3]
stimulating transcription of a reporter gene, times less active than 1α,25-dihydroxyvitamin D3 ([2]; stably transfected reporter, FIG. 5): 10 times | stimulation of transcription of reporter gene (in words) ([2]; summary statement): capability to stimulate transcription of reporter gene | activity in inducing differentiation of HL-60 cells compared with 1α,25-dihydroxyvitamin D3 (HL-60 cells): slightly less active; also recorded: capability to induce differentiation of HL-60 cells | intestinal calcium transport activity compared with 1α,25-dihydroxyvitamin D3 [3]: higher intestinal calcium transport activity; also recorded: high intestinal calcium transport activity | bone calcium mobilization activity compared with 1α,25-dihydroxyvitamin D3 [4]: less bone calcium mobilization activity; also recorded: low ability to mobilize calcium from bone
